How the values were obtained:
[1] = target: T1, human B1R receptor (CHO K1 cells stably transfected with the human B1R gene) (Homo sapiens, UniProt P46663); assay: Functional study on the bradykinin receptor 1 (B1R), Ca2+ fluorescence (Fluo-4) FLIPR/Novostar assay, hB1R cells; format: cell-based; settings: CHO-K1, read-out: % inhibition (human B1R) at 10 μM
T1 construct: expressed in transfected cells; host or cells: CHO K1 cells (Chinese hamster ovary), stably transfected
T1 sequence (P46663 1-353): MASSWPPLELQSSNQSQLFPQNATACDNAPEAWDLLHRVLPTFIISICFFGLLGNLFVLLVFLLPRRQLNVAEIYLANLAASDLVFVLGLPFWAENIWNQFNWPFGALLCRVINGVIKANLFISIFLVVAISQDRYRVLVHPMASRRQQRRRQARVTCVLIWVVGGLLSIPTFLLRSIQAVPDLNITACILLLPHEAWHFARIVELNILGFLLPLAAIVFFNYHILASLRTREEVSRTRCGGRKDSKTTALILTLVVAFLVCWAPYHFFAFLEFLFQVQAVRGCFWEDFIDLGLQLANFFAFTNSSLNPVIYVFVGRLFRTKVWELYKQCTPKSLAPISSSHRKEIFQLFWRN
How it was run: (§1)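 Ca2+ influx (Fluo-4, peak fluorescence, λex 488/λem 540 nm) was measured in CHO K1 lines expressing rat or human B1R. After a 10 μM test-compound pre-addition scoring % activation, cells received EC80 agonist: Des-Arg9-bradykinin for rat, Lys-Des-Arg9-bradykinin for human. Antagonism was expressed as % of maximum inhibition, with IC50 from varied concentrations.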

[2] = target: T2, B1R receptor of the rat (CHO K1 cells stably transfected with the B1R gene of the rat) (Rattus norvegicus, UniProt P97583); assay: Functional study on the bradykinin receptor 1 (B1R), Ca2+ fluorescence (Fluo-4) FLIPR/Novostar assay, rB1R cells; format: cell-based; settings: CHO-K1, 10 μM, read-out: % inhibition (rat B1R) at 10 μM
T2 construct: expressed in transfected cells; host or cells: CHO K1 cells (Chinese hamster ovary), stably transfected
T2 sequence (P97583 1-337): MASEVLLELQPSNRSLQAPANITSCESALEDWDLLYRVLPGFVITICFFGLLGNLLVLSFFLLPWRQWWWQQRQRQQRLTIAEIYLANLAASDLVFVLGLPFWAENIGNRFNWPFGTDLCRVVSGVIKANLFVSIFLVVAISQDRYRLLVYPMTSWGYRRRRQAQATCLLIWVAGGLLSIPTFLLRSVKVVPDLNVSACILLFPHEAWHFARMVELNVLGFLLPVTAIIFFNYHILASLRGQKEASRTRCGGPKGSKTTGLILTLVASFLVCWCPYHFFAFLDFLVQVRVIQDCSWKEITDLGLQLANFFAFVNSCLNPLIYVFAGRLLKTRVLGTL
How it was run: as §1

Structure (SMILES)	inhibition at 10 µM [1] [%]	inhibition at 10 µM [2] [%]
Cc1cc(N2CCC(CCNC(=O)c3ccc4c(c3)[C@H](NC(=O)c3ccccc3Cl)CC4)CC2)ccn1 [Example H-56, (3R)-3-[(2-Chloro-benzoyl)amino]-N-[2-[1-(2-methyl-pyridin-4-yl)-piperidin-4-yl]-ethyl]-2,3-dihydro-1H-indene-5-carboxylic acid amide]	99	102
CN(C(=O)c1ccc2c(c1)[C@H](NC(=O)C(C)(C)c1ccccc1Cl)CC2)C1CCN(c2ccncc2)CC1 [Example H-58, (3R)-3-[[2-(2-Chlorophenyl)-2-methyl-propanoyl]amino]-N-methyl-N-(1-pyridin-4-yl-piperidin-4-yl)-2,3-dihydro-1H-indene-5-carboxylic acid amide]	100	98
Cc1cc(N2CCC(N(C)C(=O)c3ccc4c(c3)[C@H](NC(=O)c3ccccc3Cl)CC4)CC2)nc(C)n1 [Example H-59, (3R)-3-[(2-Chloro-benzoyl)amino]-N-[1-(2,6-dimethyl-pyrimidin-4-yl)-piperidin-4-yl]-N-methyl-2,3-dihydro-1H-indene-5-carboxylic acid amide]	99	103
CN(C(=O)c1ccc2c(c1)[C@H](NC(=O)c1ccccc1Cl)CC2)C1CCN(c2ccncc2)CC1(C)C (stereo partly drawn) [Example H-60, (3R)-3-[(2-Chloro-benzoyl)amino]-N-(3,3-dimethyl-1-pyridin-4-yl-piperidin-4-yl)-N-methyl-2,3-dihydro-1H-indene-5-carboxylic acid amide]	99	103
CN(C(=O)c1ccc2c(c1)[C@H](NC(=O)c1ccccc1Cl)CC2)C1CCC(c2ccncc2)CC1 (stereo partly drawn) [Example H-61, (3R)-3-[(2-Chloro-benzoyl)amino]-N-methyl-N-(4-pyridin-4-yl-cyclohexyl)-2,3-dihydro-1H-indene-5-carboxylic acid amide]	32	77
CN(C(=O)c1ccc2c(c1)[C@H](NC(=O)CC(F)(F)F)CC2)C1CCN(c2ccncc2)CC1 [Example H-63, (3R)-N-Methyl-N-(1-pyridin-4-yl-piperidin-4-yl)-3-(3,3,3-trifluoro-propanoylamino)-2,3-dihydro-1H-indene-5-carboxylic acid amide]	100	96
CN(CC1CCN(c2ccncc2)CC1)C(=O)c1ccc2c(c1)[C@H](NC(=O)c1ccccc1Cl)CC2 [Example H-64, (3R)-3-[(2-Chloro-benzoyl)amino]-N-methyl-N-[(1-pyridin-4-yl-piperidin-4-yl)-methyl]-2,3-dihydro-1H-indene-5-carboxylic acid amide]	96	97
CN(CCC1CCN(c2ccncc2)CC1)C(=O)c1ccc2c(c1)[C@H](NC(=O)c1ccccc1Cl)CC2 [Example H-66, (3R)-3-[(2-Chloro-benzoyl)amino]-N-methyl-N-[2-(1-pyridin-4-yl-piperidin-4-yl)-ethyl]-2,3-dihydro-1H-indene-5-carboxylic acid amide]	93	99
CC(C)CS(=O)(=O)N[C@@H]1CCc2ccc(C(=O)N(C)C3CCN(c4ccncc4)CC3)cc21 [Example H-68, (3R)-N-Methyl-3-[(2-methyl-propylsulfonyl)amino]-N-(1-pyridin-4-yl-piperidin-4-yl)-2,3-dihydro-1H-indene-5-carboxylic acid amide]	100	104
CN(C(=O)c1ccc2c(c1)[C@H](NC(=O)[C@H]1CCCc3ccccc31)CC2)C1CCN(c2ccncc2)CC1 [Example H-69, (1S)-N-[(1R)-6-[Methyl-(1-pyridin-4-yl-piperidin-4-yl)-carbamoyl]-2,3-dihydro-1H-inden-1-yl]-1,2,3,4-tetrahydro-naphthalene-1-carboxylic acid amide]	100	99
CN(C(=O)c1ccc2c(c1)[C@H](NC(=O)[C@@H]1CCCc3ccccc31)CC2)C1CCN(c2ccncc2)CC1 [Example H-70, N-[(1R)-6-[Methyl-(1-pyridin-4-yl-piperidin-4-yl)-carbamoyl]-2,3-dihydro-1H-inden-1-yl]-1,2,3,4-tetrahydro-naphthalene-1-carboxylic acid amide]	100	96
CN(C(=O)c1ccc2c(c1)[C@H](NC(=O)c1ccccc1)CC2)C1CCN(c2ccncc2)CC1 [Example H-71, (3R)-3-Benzoylamino-N-methyl-N-(1-pyridin-4-yl-piperidin-4-yl)-2,3-dihydro-1H-indene-5-carboxylic acid amide]	100	99
CN(C(=O)c1ccc2c(c1)[C@H](NS(=O)(=O)c1ccccc1)CC2)C1CCN(c2ccncc2)CC1 [Example H-74, (3R)-3-(Benzenesulfonamido)-N-methyl-N-(1-pyridin-4-yl-piperidin-4-yl)-2,3-dihydro-1H-indene-5-carboxylic acid amide]	100	104

The next lines start with the values.

inhibition at 10 µM [1] [%]	inhibition at 10 µM [2] [%]	Structure (SMILES)
100	100	CN(C(=O)c1cc2c(cc1F)[C@H](NC(=O)c1ccccc1Cl)CC2)C1CCN(c2ccncc2)CC1 [Example H-57, (1R)-1-[(2-Chloro-benzoyl)amino]-6-fluoro-N-methyl-N-(1-pyridin-4-yl-piperidin-4-yl)-2,3-dihydro-1H-indene-5-carboxylic acid amide]
100	99	Cc1cc(C(=O)N[C@@H]2CCc3ccc(C(=O)N(C)C4CCN(c5ccncc5)CC4)cc32)no1 [Example H-62, 5-Methyl-N-[(1R)-6-[methyl-(1-pyridin-4-yl-piperidin-4-yl)-carbamoyl]-2,3-clihydro-1H-inden-1-yl]-isoxazole-3-carboxylic acid amide]
100	107	CC(C)CN(C(=O)c1ccccc1Cl)[C@@H]1CCc2ccc(C(=O)N(C)C3CCN(c4ccncc4)CC3)cc21 [Example H-65, (3R)-3-[(2-Chloro-benzoyl)-(2-methyl-propyl)-amino]-N-methyl-N-(1-pyridin-4-yl-piperidin-4-yl)-2,3-dihydro-1H-indene-5-carboxylic acid amide]
100	102	CN(C(=O)c1ccc2c(c1)[C@H](NC(=O)c1ccccc1C(C)(C)C)CC2)C1CCN(c2ccncc2)CC1 [Example H-67, (3R)-3-[(2-tert-Butyl-benzoyl)amino]-N-methyl-N-(1-pyridin-4-yl-piperidin-4-yl)-2,3-dihydro-1H-indene-5-carboxylic acid amide]
99	104	CN(C(=O)c1ccc2c(c1)[C@H](NS(=O)(=O)c1ccc(F)cc1)CC2)C1CCN(c2ccncc2)CC1 [Example H-72, (3R)-3-[[(4-Fluorophenyl)sulfonyl]amino]-N-methyl-N-(1-pyridin-4-yl-piperidin-4-yl)-2,3-dihydro-1H-indene-5-carboxylic acid amide]
100	104	CN(C(=O)c1ccc2c(c1)[C@H](NC(=O)c1cccc3ccccc13)CC2)C1CCN(c2ccncc2)CC1 [Example H-73, N-[(1R)-6-[Methyl-(1-pyridin-4-yl-piperidin-4-yl)-carbamoyl]-2,3-dihydro-1H-Inden-1-yl]-naphthalene-1-carboxylic acid amide]
